# Key:
# [1] = molecular target: Lysine-specific histone demethylase 1A (Homo sapiens, UniProt O60341); test: Inhibition of recombinant human His-tagged LSD1 expressed in Escherichia coli BL21 (DE3) using H3K4me2 peptide as substrate preincubated for 10 mins followed by substrate addition measured after 20 mins by Amplex red dye based fluorescence assay
# [2] = test system: MV4-11; test: Antiproliferative activity against human MV411 cells after 72 hrs by CellTitre-Glo assay; conditions: MV4-11, 72 h
# [3] = test system: THP-1; test: Antiproliferative activity against human THP1 cells after 72 hrs by CellTitre-Glo assay; conditions: THP-1, 72 h
SMILES,IC50 [1] [µM],IC50 [2] [µM],IC50 [3] [µM]
N[C@H]1C[C@@]1(F)c1ccc(F)cc1,> 25,,
Cc1ccc([C@]2(F)C[C@@H]2N)cc1,> 25,,
N[C@H]1C[C@]1(F)c1ccc(F)cc1,> 25,,
N[C@H]1C[C@]1(F)c1ccccc1,> 25,,
Cc1ccc([C@@]2(F)C[C@@H]2N)cc1,> 25,,
N[C@H]1C[C@@]1(F)c1ccccc1,> 25,,
N[C@@H]1C[C@H]1c1ccccc1.N[C@H]1C[C@@H]1c1ccccc1 (racemic) [TRANYLCYPROMINE],,630,810
N[C@H]1C[C@@]1(F)c1ccc([N+](=O)[O-])cc1 (relative stereo),> 50,,
CCOc1ccc([C@@]2(F)C[C@@H]2N)cc1 (relative stereo),> 50,,
N[C@H]1C[C@]1(F)c1ccc([N+](=O)[O-])cc1 (relative stereo),> 50,,
CCOc1ccc([C@]2(F)C[C@@H]2N)cc1 (relative stereo),> 50,,

# Results, then the molecule that gave them:
IC50 [1] [µM],IC50 [2] [µM],IC50 [3] [µM],SMILES
> 25,,,COc1ccc([C@]2(F)C[C@@H]2N)cc1
> 25,,,COc1ccc([C@@]2(F)C[C@@H]2N)cc1
,4.9,1.6,N[C@H]1C[C@]1(F)c1cccc(F)c1 (relative stereo)
,8.2,7,N[C@H]1C[C@@]1(F)c1cccc(F)c1 (relative stereo)
,1.9,8.5,COc1cccc([C@@]2(F)C[C@@H]2N)c1 (relative stereo)
,> 30,> 30,N[C@H]1C[C@]1(F)c1cccc([N+](=O)[O-])c1 (relative stereo)

# Source: ChEMBL document CHEMBL4038297, “Fluorinated tranylcypromine analogues as inhibitors of lysine-specific demethylase 1 (LSD1, KDM1A)” (Bioorg Med Chem Lett, 2017)
